According to patent publication US6897212B2, “Treatment of oppositional defiant disorder and conduct disorder with 5-aminoalkyl-4,5,6,7-tetrahydro-4-oxyindolones” (Afecta Pharmaceuticals, priority 2002, dated 2005):
Like-named read-outs stand apart in the source and are kept apart here.

Assays:
[1] = tested on: patients with refractory depression; settings: 19 patients with refractory depression; molindone 10-30 mg/day; cited from earlier work
Dopamine 2 receptor = Dopamine 2 receptor (Homo sapiens, UniProt P14416); experiment: binding affinity to Dopamine 2 receptor in cell membrane homogenates
Chain of Dopamine 2 receptor (P14416 whole entry): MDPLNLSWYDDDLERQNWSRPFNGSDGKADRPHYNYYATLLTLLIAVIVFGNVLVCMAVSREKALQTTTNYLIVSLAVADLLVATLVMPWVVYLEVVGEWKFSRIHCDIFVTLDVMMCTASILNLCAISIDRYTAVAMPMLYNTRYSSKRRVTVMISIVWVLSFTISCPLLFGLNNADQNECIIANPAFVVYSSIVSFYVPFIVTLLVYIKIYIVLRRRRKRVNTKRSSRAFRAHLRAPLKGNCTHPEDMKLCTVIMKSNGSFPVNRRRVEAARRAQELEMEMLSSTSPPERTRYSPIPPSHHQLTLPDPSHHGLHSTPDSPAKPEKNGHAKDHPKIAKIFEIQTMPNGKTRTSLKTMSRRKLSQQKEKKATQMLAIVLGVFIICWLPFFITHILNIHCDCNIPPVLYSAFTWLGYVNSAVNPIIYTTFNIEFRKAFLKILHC

Serotonin 2A receptor = target: T1, Serotonin 2A receptor (Homo sapiens, UniProt P28223); experiment: binding affinity to Serotonin 2A receptor in cell membrane homogenates; settings: for Ki: cell membrane homogenates, read-out: pKi 5-HT2A (converted); for pKi ratio 5-HT2A/D2: ratio of Serotonin 2A binding to Dopamine 2 binding
T1 construct: membrane homogenates
T1 sequence (P28223 whole entry): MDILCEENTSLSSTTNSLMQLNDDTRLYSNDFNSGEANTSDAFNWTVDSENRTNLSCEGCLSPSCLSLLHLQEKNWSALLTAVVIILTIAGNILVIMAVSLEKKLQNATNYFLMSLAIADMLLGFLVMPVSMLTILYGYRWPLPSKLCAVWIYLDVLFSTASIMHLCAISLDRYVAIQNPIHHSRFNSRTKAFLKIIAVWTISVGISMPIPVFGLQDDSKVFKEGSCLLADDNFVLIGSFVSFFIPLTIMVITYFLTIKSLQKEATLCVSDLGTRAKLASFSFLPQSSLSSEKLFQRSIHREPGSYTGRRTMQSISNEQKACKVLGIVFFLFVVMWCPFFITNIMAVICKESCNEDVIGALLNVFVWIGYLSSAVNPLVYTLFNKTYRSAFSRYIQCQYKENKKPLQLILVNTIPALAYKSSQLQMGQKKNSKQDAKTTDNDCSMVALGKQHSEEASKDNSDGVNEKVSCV
Excerpt: The formulae of the compounds are [drawing 6]
Here, the pKi value is a measure for the binding affinity of the test compounds to the receptors present in cell membrane homogenates. D1 refers to the Dopamine 1 receptor, D2 refers to the Dopamine 2 receptor, and 5-HT2A refers to the Serotonin 2A receptor, while the pKi ratio presents the ratio of Serotonin 2A binding to Dopamine 2 binding.

5-HT2A = 5-HT2A (Homo sapiens, UniProt P28223); experiment: in vitro activity (pA2) on cells expressing serotonine receptors
Chain of 5-HT2A (P28223 whole entry, species assumed): as the sequence (P28223 whole entry) above

Dopamine 1 receptor = Dopamine 1 receptor (Homo sapiens, UniProt P21728); experiment: binding affinity to Dopamine 1 receptor in cell membrane homogenates
Chain of Dopamine 1 receptor (P21728 whole entry): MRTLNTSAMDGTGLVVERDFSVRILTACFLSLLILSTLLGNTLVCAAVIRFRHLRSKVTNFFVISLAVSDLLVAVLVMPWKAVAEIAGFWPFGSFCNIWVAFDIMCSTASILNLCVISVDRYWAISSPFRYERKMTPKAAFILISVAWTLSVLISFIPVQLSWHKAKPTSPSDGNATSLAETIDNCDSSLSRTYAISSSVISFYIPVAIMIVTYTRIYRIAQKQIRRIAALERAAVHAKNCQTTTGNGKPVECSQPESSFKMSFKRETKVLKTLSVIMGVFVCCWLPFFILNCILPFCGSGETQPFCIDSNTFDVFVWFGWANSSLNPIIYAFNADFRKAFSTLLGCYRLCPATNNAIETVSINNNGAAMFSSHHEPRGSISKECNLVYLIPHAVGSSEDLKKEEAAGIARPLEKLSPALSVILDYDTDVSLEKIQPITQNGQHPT

monoamine oxidase = settings: in vitro and in vivo; cited from earlier work
patients with ODD = experiment: treatment of patients with oppositional defiant disorder and conduct disorder; format: in vivo, human
Excerpt: The side effect is totally unacceptable to teenagers.
Case histories are set out in the following examples, which are offered by way of illustration and are not intended to limit the invention in any manner.

[2] = human, in vivo
[3] = tested on: children with undersocialized conduct disorder, aggressive type; settings: cited from earlier work; for behavior ratings: double-blind study, 31 children, ages 6-11 years (Greenhill et al., 1985)
[4] = cited from earlier work
[5] = cited from earlier work; remark: listed apart in the source
[6] = weight gain in treated patients

**Q.** Which “patients showing definite improvement” value [1] does the source give for `N[C@@H]1C[C@H]1c1ccccc1` (racemic) [tranylcypromine] here?
**A.** Its value is “two”.

**Q.** Which Ki (Dopamine 2 receptor) does the source give for `CCc1c(C)[nH]c2c1C(=O)C(CCN1CCOCC1)CC2` (stereo not drawn) [Compound 1] here?
**A.** Its Ki is 589 nM.

**Q.** What about the Ki (Serotonin 2A receptor) of the same compound?
**A.** The Ki was 912 nM.

**Q.** What about the “pKi ratio 5-HT2A/D2” value (Serotonin 2A receptor) of the same compound?
**A.** Its value is 0.97.

**Q.** And the Kb (5-HT2A)?
**A.** Its Kb is 105 nM.

**Q.** What about the Ki (Dopamine 1 receptor) of the same compound?
**A.** The Ki was 2140 nM.

**Q.** With `CCc1c(C)[nH]c2c1C(=O)C(CCN1CCN(c3ccccc3OC)CC1)CC2` (stereo not drawn) [Compound 2] as the compound, how does the Ki (Dopamine 2 receptor) read?
**A.** Its Ki is 28.2 nM.

**Q.** What about the Ki (Serotonin 2A receptor) of the same compound?
**A.** The Ki was 91.2 nM.

**Q.** And the “pKi ratio 5-HT2A/D2” value (Serotonin 2A receptor)?
**A.** The value was 0.97.

**Q.** What about the Kb (5-HT2A) of the same compound?
**A.** The Kb was 31.6 nM.

**Q.** What does the source list for `CCc1c(C)[nH]c2c1C(=O)C(CN1CCOCC1)CC2` (stereo not drawn) [Molindone, 3-ethyl-6,7-dihydro-2-methyl-5-(morpholinomethyl)indol-4-(5H)-one]?
**A.** inhibition of monoamine oxidase (monoamine oxidase): inhibits the enzyme monoamine oxidase in vitro and in vivo; effect on tantrums, hitting, rages and swearing (patients with ODD; Example 1, patient three, ¼ of a 5 mg tablet every 4 hours): immediate cessation of the tantrums, hitting and rages and less swearing; effect of raised dose (patients with ODD; Example 1, patient three, ½ of a 5 mg tablet every 4 hours after three months): more effective; effect on tantrums and aggressive behaviors (patients with ODD; Example 2, patient two, 2.5 mg every 4 hours): the tantrums and aggressive behaviors disappeared; persistence of effect (patients with ODD; Example 2, patient two, after 6 months of use): still effective; effect on behavior after molindone was again initiated (patients with ODD; Example 3, patient one): immediate and dramatic improvement in the behavior; effect on oppositional behavior (patients with ODD; Example 3, patient one, molindone 10 mg bid): dramatic decrease in oppositional behavior; treatment of ODD (patients with ODD; more than 50 patients with ODD, usual dose 1.25 to 10 mg every 4 hours): successfully treated; weight gain [2]: rarely, if ever, causes weight gain; patients showing definite improvement [1]: Five of the 10 patients; behavior ratings [3]: improvement in behavior ratings; aggressive behavior and Nurses' Global Assessment Scale ([3]; open trial, six patients, ages 6-11 years (Greenhill et al., 1981)): some improvement; prolongation of half-life ([4]; concomitant lithium therapy): at least fourfold; elimination half-life ([4]; humans): approximately 2 hours

**Q.** Which “fraction in plasma not bound to protein” value [5] does the source give for `CN(C)CCCN1c2ccccc2Sc2ccc(Cl)cc21` [chlorpromazine] here?
**A.** The value was 0.13%.

**Q.** With `O=C(CCCN1CCC(O)(c2ccc(Cl)cc2)CC1)c1ccc(F)cc1` [haloperidol] as the compound, how does the “fraction in plasma not bound to protein” value [5] read?
**A.** The value was 9%.

**Q.** For `Cc1cc2c(s1)Nc1ccccc1N=C2N1CCN(C)CC1` [olanzapine], which weight gain ([6]; Example 3, patient one) is on record?
**A.** Its weight gain is “significant weight gain”.

**Q.** And the weight gain ([6]; patients, especially children)?
**A.** The weight gain was “unacceptable level of weight gain, sometimes approaching a pound a day”.

**Q.** For `Cc1nc2n(c(=O)c1CCN1CCC(c3noc4cc(F)ccc34)CC1)CCCC2` [risperidone], which “effect on oppositional behavior” value (patients with ODD; Example 3, patient one, used instead of molindone) is on record?
**A.** The value was “significant improvement in the oppositional behavior”.

**Q.** What about the “treatment of ODD” value (patients with ODD; unpublished observations) of the same compound?
**A.** The value was “capable of effectively treating ODD”.

**Q.** And the weight gain ([6]; Example 3, patient one)?
**A.** The weight gain was “significant weight gain”.

**Q.** And the weight gain ([6]; patients, especially children)?
**A.** Its weight gain is “unacceptable level of weight gain, sometimes approaching a pound a day”.

**Q.** For `CSc1ccc2c(c1)N(CCC1CCCCN1C)c1ccccc1S2` (stereo not drawn) [thioridazine], which behavior ratings [3] is on record?
**A.** Its behavior ratings is “improvement in behavior ratings”.
